Experimental data taken from ChEMBL document CHEMBL3507680, “University of Dundee, Gates Library screen for HepG2 cell viability”.

Experiment: Human HepG2 cell viability assay in 384 well format
Format: toxicity, cell-based
Set-up: dose 125 nL, time 70.5 hour; concentration not given beside the values
Settings: HepG2 cells, read-out: Inhibition

Structure (SMILES) | cytotoxicity at 70.5 h [%]
CC[C@H](C)[C@H](N)C(=O)N1CC(=O)c2sc(NCc3ccccc3)nc2C1 | 7.34
Cc1cc(C)n(C2CCCN(C(=O)c3cc(C(N)=O)cs3)C2)n1 (stereo not drawn) | 0.983
Cc1nn(C)c2cn(CC(=O)N3CCc4ccccc4C3)nc12 | 1.13
CN(C)C[C@H]1C[C@@H]2CN(Cc3ccco3)C[C@@H]2O1 | -16.1
Cc1noc(C)c1CN1CC2(CCN(C(=O)c3c[nH]cn3)C2)CC1=O (stereo not drawn) | -11.1
CNC(=O)c1cnc2n1CCN(Cc1cccnc1)C2 | -2.74
c1ccc(-n2ccc(CN3CCOC(Cn4cncn4)C3)n2)cc1 (stereo not drawn) | -8.56
CC(=O)NCCCSC1CCN(c2ccccc2Cl)C1=O (stereo not drawn) | -10.2
O=C(c1nccc2ccccc12)N1CCCCC1Cn1cccn1 (stereo not drawn) | -5.86
Nc1nccnc1C(=O)N1CC(OCc2cccc3ccccc23)C1 | 9.66
Cn1nccc1-c1ncc(-c2cc(C(=O)O)n(CC3CC3)c2)cn1 | 6.58
NC(=O)NC(=O)CNC1(c2ccc(Cl)cc2)CCCC1 | -17.2
Cc1cn2cc(-c3nc4c([nH]3)CCCNC4=O)nc2s1 | -10.3
CC(=O)N[C@H](C)c1c(-c2ccc(Cl)cc2)noc1C(=O)O | -6.07
CCOc1ccc(NC(=O)NCCS(=O)(=O)CC)cc1C | -8.96
CC(C)(C)CN(CCO)C(=O)Nc1cccc(N2CCNC2=O)c1 | -4.71
CCCS(=O)(=O)CCN1CCN(C(C#N)c2ccccc2)CC1 (stereo not drawn) | -8.86
COc1nccnc1-c1cc(NC2CCCC2)nc2[nH]ccc12 | -16.1
CCOC(=O)C1CCN(C(=O)Cn2ccc3cc(Br)ccc32)CC1 | 24.7
CC1CCC(NS(=O)(=O)CC(=O)NC(C2CC2)C2CC2)CC1 (stereo not drawn) | 23.5
Cc1[nH]c2ccccc2c1-c1ccnc(N[C@@H](C)CO)n1 | -3.05
CC(C)N1CCN2C(=O)N(C3CCCCC3)C[C@H]2C1 | 0.287
COCCn1cc(NC(=O)NCC2CCN(c3ccccc3)C2)cn1 (stereo not drawn) | -3.34

Structure (SMILES) | cytotoxicity at 70.5 h [%]
Cc1nc(CN2C[C@@H]3CN(C(=O)c4cnccn4)C[C@@H]3C2)cs1 | -11.6
COc1cccc2c1OCC(CNC(=O)CSc1nc(N)n[nH]1)C2 (stereo not drawn) | -12
O=C(COc1coc(CN2CCOCC2)cc1=O)c1ccc(Cl)cc1 | -9.03
Cc1ccc(C(=O)N(C)Cc2csc(Br)c2)c(=O)[nH]1 | 1.57
O=C(Nc1ccccc1OCC1CCCCO1)c1ccc(O)nc1 (stereo not drawn) | -13
Cc1cnn(CC2CCCN2Cc2nnc(Cc3ccccc3)o2)c1 (stereo not drawn) | 8
CC(=O)N1C[C@@H]2CC[C@H](C1)N(S(=O)(=O)c1ccc(F)cc1Cl)C2 | -6.08
O=C(NCCOc1cccc(Cl)c1)C1CC(=O)N(CC2CC2)C1 (stereo not drawn) | 40.6
Cc1ccc(CN[C@@H]2CO[C@H](CNS(=O)(=O)c3ccccc3)[C@H]2O)cc1 | -0.953
CC(=O)N1Cc2ccnn2CC(C(=O)NCc2cccnc2)C1 (stereo not drawn) | -6.11
O=C1N(Cc2cccc(F)c2)CCC12CCCN(c1ncc(F)cn1)C2 (stereo not drawn) | -5.64
Cc1nc(Cn2cc(I)cc(C)c2=O)oc1C | 2.15
O=C(c1cc(Cl)ccc1F)N1CCCC1Cn1cccn1 (stereo not drawn) | 22.7
CS(=O)(=O)N(Cc1ccon1)c1ccc(F)cc1 | -2.76
O=C(NCc1cc[nH]n1)N1CCC(Oc2ccccc2Cl)CC1 | 8.97
COc1ccc(CCC(=O)Nc2ccncc2C)cc1 | -9.71
CNC(=O)[C@@]12CCC3(CCN(C(=O)C(C)C)CC3)[C@@H]1CN(S(C)(=O)=O)C2 | 2.4
CCc1nc(C)sc1CNC1CCN(Cc2ccccc2)C1 (stereo not drawn) | 8.22
Cc1ccc(-n2nnc(C(=O)NCC3(CO)CC3)c2C2CC2)cc1 | -4.67
O=C(CCc1nc(C2CC2)no1)c1ccccc1 | -16
Cc1noc(OCCOc2ccc(C#N)cc2)n1 | 5.31
O=C(CNc1cc(Br)ccc1Br)NC1CCS(=O)(=O)C1 (stereo not drawn) | -14.1
CN(C)C(=O)CCC[S+]([O-])Cc1cc(Cl)ccc1Cl (stereo not drawn) | -3.61

Structure (SMILES) | cytotoxicity at 70.5 h [%]
Cc1cc2c(=O)n3c(nc2s1)CCN(Cc1cnc(C(C)C)nc1)CC3 | -14.8
O=C(CCC(F)(F)F)N1CCN(Cc2ccncc2)[C@@H]2CS(=O)(=O)C[C@@H]21 | 24
C[C@]1(O)CN(Cc2ccc(C(=O)O)cc2)CC[C@@H]1Oc1cccc(F)c1 | -10.9
COCCNC(C)c1ccc(-c2cccnc2)cc1 (stereo not drawn) | 0.821
N#Cc1ccc(NC2CCN(CC(F)F)CC2)c(F)c1 | -15.5
CC(Cn1cncn1)NC1CCN(Cc2cccc(O)c2)CC1 (stereo not drawn) | -2.81
CC(NC(=O)CCS(=O)(=O)C1CCCC1)c1nc(-c2ccccc2)c[nH]1 (stereo not drawn) | -3.16
Cc1csc2nc3n(c(=O)c12)CCN(C(=O)c1ccncc1)CC3 | -7.78
C[C@@]1(O)CCN(C2CCOCC2)C[C@H]1n1ccc(=O)[nH]c1=O | -3.9
CSCc1cc(F)ccc1CNCc1ncc[nH]1 | -8.53
CCN1CCC(CC(=O)N(C)CC(=O)c2ccc(O)cc2)CC1 | -8.66
CC(NC(=O)NCCNc1ccccn1)c1cccs1 (stereo not drawn) | -1.83
Cn1cnnc1C1CCCN(C(=O)NCc2cc[nH]n2)C1 (stereo not drawn) | 18.7
Cc1ccc(S(=O)(=O)Nc2ccc(C)c(C(=O)O)c2)s1 | -0.348
O=C(NCc1cc2n(n1)CCCNC2)C1(c2ccc(Cl)cc2)CCC1 | 1.64
CC(C)c1ccn(C2(C(=O)O)CCN(c3ccncc3F)CC2)n1 | -4.07
CCNC(=O)CCc1c(C)nc2cc(O)nn2c1C | -5
O=C(COC1CCCC1)N1C[C@@H]2CN(Cc3ccoc3)CCO[C@@H]2C1 | -6.78
CN(C)[C@@H]1CCN(C(=O)c2ccccn2)[C@H]1Cc1cnn(C)c1 | -5.7
CN1CCCC(CNS(=O)(=O)N2CCc3ccccc3C2)C1 (stereo not drawn) | -10.7
Cc1ccc(CN2CCC(NC(=O)c3scnc3C)CC2)cc1 | 3.8
CCCC(C)C(=O)N1CCC(c2cc(N3CCOCC3)nc(C)n2)CC1 (stereo not drawn) | -1.55
Cc1cccc(-c2nccnc2C2CCCN(C)C2)c1C (stereo not drawn) | 18.2

Structure (SMILES) | cytotoxicity at 70.5 h [%]
O=C(c1cccnc1)N(Cc1ccncc1)C1CC1 | -4.09
CN(C(=O)c1ccc(C2CCCO2)s1)C1CCS(=O)(=O)CC1 (stereo not drawn) | 2.73
CCCc1nnc(NC(=O)NC(CCO)c2cccs2)s1 (stereo not drawn) | -3.88
CS(=O)(=O)c1cccc(S(=O)(=O)NC(=O)CC2CCCC2)c1 | -3.3
Cc1ccc(CNC(=O)c2c[nH]nc2NC(=O)C2COCCO2)cc1 (stereo not drawn) | -0.405
Cc1nn(C)c(N(C)C)c1CNC(C)c1cccnc1 (stereo not drawn) | -6.25
Cc1noc2nc(C3CCN(CC4=CCCOC4)CC3)cc(C(F)F)c12 | -7.18
CC(C)(C)C(=O)c1ccsc1NC(=O)CCNC(=O)c1ccco1 | -5.13
CC(=O)N1CC[C@H]2OCC[C@@H](C(=O)NCc3ccco3)[C@@H]2C1 | 26.4
N#Cc1c(Cl)nsc1NCc1ccc(N2CCCC(C(N)=O)C2)cc1 (stereo not drawn) | -2.18
COc1ccc(COCC(O)CNC(=O)Cc2ccc(C)cc2)cc1 (stereo not drawn) | -2.43
CC(C)CN1CCC(C(=O)NCCNC(=O)c2ccco2)CC1 | -5.07
CN1CCN(S(=O)(=O)c2cccc(F)c2)c2ccccc21 | 11.9
CSc1nccn1-c1ccc(C(=O)NCC2CC2)cc1 | -4.68
O=C(c1cnc2n1CCCC2)N1CCCC1 | -2.75
COCC(=O)N1CCc2ccccc2C12CCNCC2 | 18.5
Cc1csc(C(C#N)C(=O)NCc2cccnc2)n1 (stereo not drawn) | -5.59
O=C(NCCc1cccnc1)c1cn(CCN2CCNCC2)nn1 | -5.26
Cc1cc(N2CCCC(N(C)C)C2)n2nccc2n1 (stereo not drawn) | 9.89
Cc1ccccc1N1CCCN(C(=O)c2cn(C)c3ccccc23)CC1 | -8.98
Cn1cc(Cl)c(CN2CCn3nc(C(=O)Nc4ccccc4)cc3C2)n1 | 32.8
CN(C(=O)CN1CCCC1c1cnn(C)c1)C1(C#N)CCCCC1 (stereo not drawn) | -4.65
CC(=O)N1CCN(C(=O)NCc2cccnc2OC(C)C)CC1 | 26.4

Structure (SMILES) | cytotoxicity at 70.5 h [%]
C[C@@H]1CN(c2nc(N)nc3c2CCC3)C[C@]1(C)O | 1.03
N#Cc1ccc(F)c(CNC(=O)NC(CO)c2ccccc2)c1 (stereo not drawn) | 13.7
CC(=O)NCC(=O)N1C[C@@H](C)[C@@]2(CCN(c3ccsc3)C2=O)C1 | -10.5
O=S(=O)(C1CC1)N1CCC2(COCc3cnc(NCC4CC4)nc32)C1 (stereo not drawn) | -6.1
Nc1ncc(-c2cccc(NC(=O)[C@@H]3CCCCN3)c2)cn1 | -4.27
Cc1cc(C)nc(Nc2nccnc2C2CCCN(C(C)C)C2)n1 (stereo not drawn) | 1.6
O=C(CCc1ccccc1)N1CCC(c2n[nH]c(C3CC3)n2)CC1 | -7.31
Cc1cc(N2CCCN(C(=O)Cc3csc(C)n3)CC2)ccn1 | -12.4
CCn1nc(C)cc1C(=O)Nc1cc(F)ccc1OCC1CCCO1 (stereo not drawn) | -16.3
CCc1cnc(CN(C)C2CCN(CC3CCC3)C2)o1 (stereo not drawn) | 8.96
Cc1nc(N(C)CCN(C)C)c2cnn(C)c2n1 | 19.9
Cc1cc(Cc2ccc(S(=O)(=O)N3CCOCC3)cc2)c(=O)[nH]n1 | 12.1
CC(C)C(C)NC(=O)Nc1cccc(OCC#N)c1 (stereo not drawn) | -8.7
CCN(CC(F)(F)F)C(=O)C1CCCN(Cc2nc(C)c(C)o2)C1 (stereo not drawn) | -1.99
Cc1cc(O)cc(C2CCCN2C(=O)c2ccn(C)n2)n1 (stereo not drawn) | 10.2
O=C(COC[C@H]1CC[C@H]2[C@H](CCN2c2ncccn2)O1)N1CCCC1 | -3.63
CC(=O)N1CCN(Cc2ccccn2)CC2(CC(=O)N(C)C2)C1 (stereo not drawn) | 0.971
CNC(=O)NC(=O)CSC(C)c1ccccc1F (stereo not drawn) | -15.4
COc1cccc(-c2ncc(CN3CC[C@H](CO)[C@@H](O)C3)s2)c1 | -20.8
Cc1cnn(C2CCCN(C(=O)c3c(C)oc(C)c3C)C2)c1 (stereo not drawn) | -0.501
CCOCC(O)CN1CCN(C(=O)Cc2ccc(C)nc2)CC1 (stereo not drawn) | -0.471
